Data set [1] in a line: Total clearance in male Sprague-Dawley rat at 0.1 mg/kg, iv measured upto 8 hrs by LC-MS/MS analysis. Type of data set: ADME, organism-based. The note with it: in vivo.
A short description of data set [2]: Volume of distribution at steady state in male Sprague-Dawley rat at 0.1 mg/kg, iv measured upto 8 hrs by LC-MS/MS analysis. Type of data set: ADME, organism-based. As to conditions: in vivo; call rule not given here.
Data set [3] is described as follows: AUC (0 to 8 hrs) in male Sprague-Dawley rat at 0.1 mg/kg, iv measured upto 8 hrs by LC-MS/MS analysis. As to conditions: in vivo. Format: ADME, organism-based.
The nature of data set [4]: AUC (0 to 8 hrs) in male Sprague-Dawley rat at 0.1 mg/kg, po measured upto 8 hrs by LC-MS/MS analysis. The note with it: in vivo. Format: ADME, organism-based.
A short description of data set [5]: Oral bioavailability in male Sprague-Dawley rat at 0.1 mg/kg measured upto 8 hrs by LC-MS/MS analysis. Format: ADME, organism-based. As to conditions: in vivo.
The next data set addresses Albumin (Homo sapiens, UniProt P02768). Briefly: Binding affinity to serum albumin in human plasma. Type of data set: ADME, cell-free.
Data set [6] is described as follows: Tmax in male Sprague-Dawley rat at 0.1 mg/kg, po measured […] by LC-MS/MS analysis. As to conditions: in vivo. Type of data set: ADME, organism-based.
Data set [7] can be described thus: C0 in male Sprague-Dawley rat at 0.1 mg/kg, iv measured upto 8 hrs by LC-MS/MS analysis. The note with it: in vivo.
Data set [8] is described as follows: Cmax in male Sprague-Dawley rat at 0.1 mg/kg, po measured upto 8 hrs by LC-MS/MS analysis. As to conditions: in vivo.
A short description of data set [9]: Solubility of compound at pH 1.2 incubated for 4 hrs by HPLC or LC-MS/MS analysis. Format: physicochemical. The note with it: buffer, pH 1.2, 4 h.
Data set [10] in a line: Solubility of compound at pH 6.8 incubated for 4 hrs by HPLC or LC-MS/MS analysis. Format: physicochemical. As to conditions: buffer, pH 6.8, 4 h.
Data set [11] can be described thus: Plasma protein binding in rat assessed as unbound fraction at 1 uM incubated for 6 hrs by LC/MS/MS based equilibrium dialysis method. Type of data set: ADME, cell-free.
Data set [12] concerns the target Transthyretin (Homo sapiens, UniProt P02766). Briefly: Binding affinity to TTR in human plasma assessed as target occupancy incubated for 6 hrs in presence of E)-S-phenyl 3-(4-hydroxy-3,5-dimethyistyryl)benzothioate by fluorescence based competitive binding assay. Type of data set: cell-free.
In data set [13] the target is Transthyretin (Homo sapiens, UniProt P02766, V50M). Nature of the data set: Binding affinity to TTR V30M mutant (unknown origin) assessed as dissociation constant by ITC analysis.
The conditions of data set [14]: pampa, 4 h, 500 µM.

The text below walks through data of ChEMBL document CHEMBL5543166, “Development of Benziodarone Analogues with Enhanced Potency for Selective Binding to Transthyretin in Human Plasma” (J Med Chem, 2024).

Converted amounts (≈) assume the structure as drawn.

Chain of Albumin (P02768 whole entry): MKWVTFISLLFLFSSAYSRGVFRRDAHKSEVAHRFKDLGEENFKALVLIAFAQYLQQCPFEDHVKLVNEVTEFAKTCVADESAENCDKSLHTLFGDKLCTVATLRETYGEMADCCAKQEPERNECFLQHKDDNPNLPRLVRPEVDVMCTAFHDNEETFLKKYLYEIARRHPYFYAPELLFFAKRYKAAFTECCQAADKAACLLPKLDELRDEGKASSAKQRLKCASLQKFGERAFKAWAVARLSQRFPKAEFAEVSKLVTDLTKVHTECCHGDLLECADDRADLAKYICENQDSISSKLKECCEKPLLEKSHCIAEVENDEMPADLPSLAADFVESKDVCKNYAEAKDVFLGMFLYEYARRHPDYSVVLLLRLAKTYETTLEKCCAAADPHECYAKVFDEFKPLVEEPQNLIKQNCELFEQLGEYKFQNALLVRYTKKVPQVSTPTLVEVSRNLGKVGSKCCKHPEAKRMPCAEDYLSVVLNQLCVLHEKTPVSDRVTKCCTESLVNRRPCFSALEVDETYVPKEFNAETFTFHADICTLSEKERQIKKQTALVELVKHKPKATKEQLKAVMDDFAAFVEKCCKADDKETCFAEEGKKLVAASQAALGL

`O=C(O)c1ccc2nc(-c3cc(Cl)cc(Cl)c3)oc2c1`: in [1], the CL turned out to be 0.0993 mL/min/kg. The compound further came in with a Vdss in [2] of 0.311 L/kg. Further, the AUC came to 2363 ng·h/mL in data set [3] and 1500 ng·h/mL in [4]. The compound also returned a bioavailability in data set [5] of 63.5%. Besides, on Albumin, the result was Active. Besides, the Tmax in data set [6] turned out to be 4 h. Besides, in data set [7], the C0 at 8 h turned out to be 519 ng/mL. The same compound registered a peak concentration (Cmax) in data set [8] of 235 ng/mL.
Take `CCc1oc2cccc(Cl)c2c1C(=O)c1cc(I)c(O)c(I)c1`: the solubility in [9] is less than 0.01 µM; in [10], more than 100 µM. Further, the Fu in [11] is less than 0.01%. This compound also registered a CL in data set [1] of 0.343 mL/min/kg. This compound came in with a Vdss in data set [2] of 0.112 L/kg. The AUC in data set [3] is 3726 ng·h/mL; in data set [4], 2524 ng·h/mL. The Tmax in data set [6] is 4 h. The same compound returned a C0 at 8 h in data set [7] of 1720 ng/mL. The compound further registered a Cmax in data set [8] of 395 ng/mL.
Consider `CCc1oc2cccc(I)c2c1C(=O)c1cc(I)c(O)c(I)c1`, for which the values for the solubility in data set [9] and in [10] were less than 0.02 µM and more than 100 µM, respectively. Moreover, the Fu in data set [11] is listed as less than 0.01%. In [1], this compound yielded a CL of 0.405 mL/min/kg. Further, the Vdss in data set [2] stood at 0.153 L/kg. The results for the AUC in data set [3] and in data set [4] were 2961 ng·h/mL and 1489 ng·h/mL, respectively. The outcome on Albumin was Active. The Tmax in [6] worked out at 4 h. Also, the C0 at 8 h in [7] stood at 1540 ng/mL. The compound further returned a Cmax in [8] of 240 ng/mL.
Turning to `CCc1oc2cccc(C)c2c1C(=O)c1cc(I)c(O)c(I)c1`, the solubility in data set [9] was less than 0.01 µM; in data set [10], more than 100 µM. The Fu in data set [11] is recorded as less than 0.01%. In [1], this compound yielded a CL of 0.44 mL/min/kg. In [2], this compound gave a Vdss of 0.123 L/kg. Besides, the results for the AUC in data set [3] and in [4] were 3102 ng·h/mL and 1918 ng·h/mL, respectively. Besides, the Tmax in data set [6] is 4 h. For the same compound, the C0 at 8 h in data set [7] was 1640 ng/mL. In data set [8], the Cmax amounted to 303 ng/mL.
On to `CCc1oc2c(Cl)ccc(Cl)c2c1C(=O)c1cc(I)c(O)c(I)c1`, for which the solubility in [9] was less than 0.02 µM; in [10] it was 89.5 µM (≈ 52.5 µg/mL). Besides, the Fu in data set [11] is given as less than 0.01%. The CL in data set [1] was 0.662 mL/min/kg. Further, the volume of distribution (Vdss) in [2] was 0.269 L/kg. Also, the AUC in [3] came out at 1746 ng·h/mL; in data set [4], 350 ng·h/mL. The Tmax in [6] turned out to be 4 h. This compound also returned a C0 at 8 h in data set [7] of 1340 ng/mL. In data set [8], this compound showed a peak concentration (Cmax) of 77 ng/mL.
For `CCc1oc2cccc(Br)c2c1C(=O)c1cc(I)c(O)c(I)c1`, the solubility in data set [9] was 0.054 µM (≈ 0.0322 µg/mL); in data set [10], more than 100 µM. Also, in data set [11], the Fu was less than 0.01%. This compound also came in with a CL in [1] of 0.343 mL/min/kg. In data set [2], this compound had a Vdss of 0.113 L/kg. Further, the exposure (AUC) in data set [3] stood at 3708 ng·h/mL; in [4], 2476 ng·h/mL. The Tmax in data set [6] was 4 h. The compound also displayed a C0 at 8 h in [7] of 1740 ng/mL. The Cmax in data set [8] was found to be 390 ng/mL.
Turning to `CCc1oc2ccccc2c1C(=O)c1cc(I)c(O)c(I)c1` [BENZIODARONE], on Albumin, the outcome was Active. On Transthyretin [12], the EC50 is 8.9 µM. Besides, the Kd at Transthyretin [13] came to 0.078 µM.
For `COCCc1ccc(OCC(O)CNC(C)C)cc1` (stereo not given) [METOPROLOL], the permeability in data set [14] was 1.8 10^-6 cm/s.
The same measure, in the same setting: the same measure for `O=C(O)c1cc(/N=N/c2ccc(S(=O)(=O)Nc3ccccn3)cc2)ccc1O` [SULFASALAZINE]: 0.038 10^-6 cm/s.
